Experimental findings from ChEMBL document CHEMBL3046890, “Synthesis and Herbicidal Activity of Sulfonylureas; SL-950 and Its Related Compounds” (1995) are described below.

What all share (format): functional
Common to all, as to conditions: read-out: GI

In one test the test system is Triticum aestivum. Briefly: Post emergence phyototoxic activity against Triticum aestivum (wheat) plants assessed as inhibition of plant growth at 125 g ai/ha measured 22 to 37 days after compound application under greenhouse conditions.
The test system of a further test is Zea mays. In words: Post emergence phyototoxic activity against Zea mays (maize) plants assessed as inhibition of plant growth at 125 g ai/ha measured 22 to 37 days after compound application under greenhouse conditions.
Another test relates to Persicaria longiseta. In words: Post-emergence herbicidal activity against Persicaria longiseta assessed as inhibition of weed growth at 125 g ai/ha measured 22 to 37 days after compound application under greenhouse conditions.
For the next test, the system named is Echinochloa crus-galli. In words: Post emergence herbicidal activity against Echinochloa crus-galli (barnyard grass) assessed as inhibition of weed growth at 125 g ai/ha measured 22 to 37 days after compound application under greenhouse conditions.
Another test deals with Sida spinosa. In words: Post-emergence herbicidal activity against Sida spinosa assessed as inhibition of weed growth at 125 g ai/ha measured 22 to 37 days after compound application under greenhouse conditions.
In the next test the test system is Ipomoea purpurea. Briefly: Post emergence herbicidal activity against Ipomoea purpurea (common morning-glory) assessed as inhibition of weed growth at 125 g ai/ha measured 22 to 37 days after compound application under greenhouse conditions.
The next test has as its system Amaranthus viridis. Briefly: Post-emergence herbicidal activity against Amaranthus viridis assessed as inhibition of weed growth at 125 g ai/ha measured 22 to 37 days after compound application under greenhouse conditions.
Another test deals with Xanthium strumarium. In words: Post emergence herbicidal activity against Xanthium strumarium (cocklebur) assessed as inhibition of weed growth at 125 g ai/ha measured 22 to 37 days after compound application under greenhouse conditions.

With `Cc1cc(C)nc(NC(=O)NS(=O)(=O)c2ncccc2C(=O)N(C)C)n1`, the inhibition of growth at 125 g/ha in the test with Triticum aestivum, in the test on Zea mays, in the test with Persicaria longiseta, with Echinochloa crus-galli, in the test on Sida spinosa and in the test with Ipomoea purpurea was 0% each time.

As to `COC(=O)CNC(=O)c1cccnc1S(=O)(=O)NC(=O)Nc1nc(OC)cc(OC)n1`, the inhibition of growth at 125 g/ha in the test with Triticum aestivum, in the test on Zea mays, in the test on Echinochloa crus-galli, in the test with Amaranthus viridis, with Sida spinosa and with Ipomoea purpurea was 0% each time.

In the case of `COc1cc(OC)nc(NC(=O)NS(=O)(=O)c2ncccc2C(=O)N(C)OC)n1`, the inhibition of growth at 125 g/ha in the test with Triticum aestivum is 100%; in the test on Zea mays it was 0%; in the test on Echinochloa crus-galli, 100%; in the test on Amaranthus viridis, 100%.

For the molecule `COc1cc(Cl)nc(NC(=O)NS(=O)(=O)c2ncccc2C(=O)N(C)C)n1`, the inhibition of growth at 125 g/ha in the test with Zea mays and in the test on Sida spinosa was 0% in each case.

With `COc1cc(OC)nc(NC(=O)NS(=O)(=O)c2ncccc2C(=O)N(C)c2ccccc2)n1`, in the test on Zea mays, the inhibition of growth at 125 g/ha came out at 0%.

As to `COc1cc(OC(F)F)nc(NC(=O)NS(=O)(=O)c2ncccc2C(=O)N(C)C)n1`, the inhibition of growth at 125 g/ha with Zea mays was 0%.

In the case of `COc1cc(OC)nc(NC(=O)NS(=O)(=O)c2ncccc2C(=O)N2CCOCC2)n1`, the inhibition of growth at 125 g/ha in the test with Triticum aestivum and with Zea mays was 0% in each case.

Consider `COc1nc(NC(=O)NS(=O)(=O)c2ncccc2C(=O)N(C)C)nc(OC)n1`, for which the inhibition of growth at 125 g/ha in the test on Triticum aestivum, with Zea mays, with Persicaria longiseta, in the test on Echinochloa crus-galli, in the test with Amaranthus viridis and in the test on Sida spinosa was 0% in each case. Further, the inhibition of growth at 125 g/ha with Ipomoea purpurea is 0%.

As for `COc1cc(OC)nc(NC(=O)NS(=O)(=O)c2ncccc2C(=O)NC2CC2)n1`, the inhibition of growth at 125 g/ha turned out to be 0% in the test with Zea mays and 100% in the test on Echinochloa crus-galli.

As to `COc1cc(OC)nc(NC(=O)NS(=O)(=O)c2ncccc2C(=O)N(C)c2ccc(F)cc2F)n1`, the figures for the inhibition of growth at 125 g/ha in the test on Triticum aestivum and in the test on Sida spinosa were 100% and 0%, respectively.

As to `COC(=O)N(C)C(=O)c1cccnc1S(=O)(=O)NC(=O)Nc1nc(OC)cc(OC)n1`, the inhibition of growth at 125 g/ha in the test on Zea mays stood at 0%.

As to `C=CCNC(=O)c1cccnc1S(=O)(=O)NC(=O)Nc1nc(OC)cc(OC)n1`, the inhibition of growth at 125 g/ha in the test with Zea mays was determined as 0%.

As to `CCC(=O)N(CC)C(=O)c1cccnc1S(=O)(=O)NC(=O)Nc1nc(OC)cc(OC)n1`, the values for the inhibition of growth at 125 g/ha in the test with Zea mays and with Amaranthus viridis were 0% and 100%, respectively.

Regarding `CNC(=O)c1cccnc1S(=O)(=O)NC(=O)Nc1nc(OC)cc(OC)n1`, the inhibition of growth at 125 g/ha was 0% in the test on Zea mays; 100% with Persicaria longiseta; 100% in the test on Echinochloa crus-galli; 100% in the test with Amaranthus viridis; 100% with Xanthium strumarium.

Take `CCCCNC(=O)c1cccnc1S(=O)(=O)NC(=O)Nc1nc(OC)cc(OC)n1`: in the test with Zea mays, the inhibition of growth at 125 g/ha is 0%.

As for `CCOc1cc(OC)nc(NC(=O)NS(=O)(=O)c2ncccc2C(=O)N(C)C)n1`, the inhibition of growth at 125 g/ha with Zea mays was 0%; in the test on Amaranthus viridis, 100%.

In the case of `CSc1cc(SC)nc(NC(=O)NS(=O)(=O)c2ncccc2C(=O)N(C)C)n1`, the inhibition of growth at 125 g/ha in the test on Zea mays, with Persicaria longiseta, in the test on Echinochloa crus-galli, in the test with Amaranthus viridis, in the test on Sida spinosa and in the test with Xanthium strumarium was 0% in each case.

Take `COc1cc(OC)nc(NC(=O)NS(=O)(=O)c2ncccc2C(=O)N(C)c2ccc(Cl)cc2)n1`: the inhibition of growth at 125 g/ha stood at 0% in the test on Zea mays and 100% in the test with Xanthium strumarium.

On to `COc1cc(OC)nc(NC(=O)NS(=O)(=O)c2ncccc2C(=O)NCC(F)(F)F)n1`, for which the inhibition of growth at 125 g/ha in the test on Zea mays is 0%.

Consider `COc1cc(OC)nc(NC(=O)NS(=O)(=O)c2ncccc2C(=O)N2CCCCC2)n1`, for which, in the test with Zea mays, the inhibition of growth at 125 g/ha is 0%.

For the molecule `COc1cc(SC)nc(NC(=O)NS(=O)(=O)c2ncccc2C(=O)N(C)C)n1`, the figures for the inhibition of growth at 125 g/ha in the test with Zea mays and in the test on Amaranthus viridis were 0% and 100%, respectively.

`COc1cc(OC)nc(NC(=O)NS(=O)(=O)c2ncccc2C(=O)N(C)CC(F)(F)F)n1`: the inhibition of growth at 125 g/ha in the test on Zea mays is 0%.

Consider `CN(C)C(=O)c1cccnc1S(=O)(=O)NC(=O)Nc1nc(OC(F)F)cc(OC(F)F)n1`, for which the inhibition of growth at 125 g/ha in the test on Triticum aestivum, in the test on Persicaria longiseta, in the test with Sida spinosa and in the test on Xanthium strumarium was 0% in each case.

As for `COc1nc(C)nc(NC(=O)NS(=O)(=O)c2ncccc2C(=O)N(C)C)n1`, the inhibition of growth at 125 g/ha in the test on Triticum aestivum, with Zea mays, in the test with Echinochloa crus-galli, in the test on Sida spinosa and in the test with Ipomoea purpurea was 0% in each case.

On to `CCNC(=O)c1cccnc1S(=O)(=O)NC(=O)Nc1nc(OC)cc(OC)n1`, for which the inhibition of growth at 125 g/ha in the test on Zea mays is 0%.

Consider `C=C(C)NC(=O)c1cccnc1S(=O)(=O)NC(=O)Nc1nc(OC)cc(OC)n1`, for which the inhibition of growth at 125 g/ha in the test on Zea mays is 0%.

Consider `CCN(C)C(=O)c1cccnc1S(=O)(=O)NC(=O)Nc1nc(OC)cc(OC)n1`, for which the inhibition of growth at 125 g/ha in the test with Zea mays stood at 0%; in the test on Echinochloa crus-galli, 100%; in the test on Xanthium strumarium it was 100%.

Regarding `COc1cc(C)nc(NC(=O)NS(=O)(=O)c2ncccc2C(=O)N(C)C)n1`, in the test with Zea mays, the inhibition of growth at 125 g/ha amounted to 0%.
